Laboratory results as given in US20240384268A1, “Oligonucleotides” (Hudson Institute of Medical Research, priority 2021, published 2024).
In the oligonucleotide strings, read from the 5' end, every base follows the letter of its sugar. An asterisk marks phosphorothioate; unmarked linkages are phosphodiester. Other units and linkages are bracketed, terminal groups are in braces. A string of capitals states the bases alone. d = 2'-deoxy (DNA); m = 2'-O-methyl

How the values were obtained:
mouse cGAS = biological target: T1, mouse cGAS (Mus musculus, UniProt Q8C6L5); assay: ISD45-driven ISRE-luciferase in mouse LL171 cells; assay type: cell-based; conditions: for effect on ISD-driven ISRE-luciferase, LNA and MOE ASOs (in words): 200 nM or indicated concentrations, ~30 min, ISD overnight (FIG. 22-24); for inhibition of ISD45-driven ISRE-luciferase (in words): 2′OMe or PS oligos 50-600 nM, ISD45 2.5 μg/ml overnight
T1 construct: endogenous in cells; host or cells: LL171 (mouse L929 cells with ISRE-Luciferase)
T1 sequence (Q8C6L5 whole entry): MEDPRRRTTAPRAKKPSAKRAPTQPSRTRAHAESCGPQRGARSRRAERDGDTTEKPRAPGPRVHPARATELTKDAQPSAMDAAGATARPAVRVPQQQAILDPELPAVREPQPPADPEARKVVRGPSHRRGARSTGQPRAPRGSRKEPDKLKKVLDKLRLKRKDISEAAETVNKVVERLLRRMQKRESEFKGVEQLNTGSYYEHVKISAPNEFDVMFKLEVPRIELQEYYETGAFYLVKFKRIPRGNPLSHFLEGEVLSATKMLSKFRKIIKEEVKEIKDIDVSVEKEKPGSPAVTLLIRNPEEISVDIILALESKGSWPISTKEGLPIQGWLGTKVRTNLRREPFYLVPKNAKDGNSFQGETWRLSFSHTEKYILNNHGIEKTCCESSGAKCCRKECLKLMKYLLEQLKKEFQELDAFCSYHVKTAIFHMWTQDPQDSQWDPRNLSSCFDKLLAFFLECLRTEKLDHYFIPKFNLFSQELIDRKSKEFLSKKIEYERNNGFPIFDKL
Method: In such examples, inhibition of cGAS activity can be identified by observation of an overall decreased cGAS response of the cell population, or a lower proportion of cells having cGAS-positive activity as compared to positive control condition in which cells are treated with cGAS agonist in the absence of the oligonucleotide (or in the presence of an appropriate control inhibitory agent). In one example, THP-1 or HT-29 cells are transfected with ISD70 and incubated with an oligonucleotide. cGAS activity can then be determined by cytokine (e.g., IP-10 and/or IFNβ) expression (e.g., gene and/or protein expression) and/or secretion levels, such as by ELISA. A similar assay can be performed with LL171 cells transfected with ISD45. […] By way of example, cGAS enzymatic activity may be assessed in vitro using recombinant cGAS and then measuring activity thereof by way of a cGAMP ELISA.
For cGAS stimulations, cells were treated for indicated duration with ASOs, prior to transfection with ISD70 (human cells) or ISD45 (mouse cells) (the ASOs were not washed off prior to ISD transfection unless otherwise indicated). The cGAS ligands ISD45 (Stetson and Medzhitov, 2006) and ISD70 (also known as VACV-70 (Unterholzner et al., 2010)) (Table 1) were resuspended as follows: 5 1d of sense and 5 μl of antisense strands at 10 μg/μl were added to 90 μl PBS under sterile conditions, heated at 75° C. for 30 min, prior to letting cool down at room temperature and aliquoting (stock at 1 μg/1 l). The ISDs were transfected at a concentration of […] at a ratio of 1 μg:1 μl with Lipofectamine 2000 in Opti-MEM (Thermo Fisher Scientific). HEK-TLR3, HEK-TLR7 and […] were treated with indicated concentration of ASOs for 20-50 min, prior to stimulation with poly(I:C) (Invivogen), R848 (Invivogen), Motolimod (MedChemExpress) and the Class B CpG oligonucleotides ODN 2006 (synthesised by IDT and resuspended in RNase-free TE buffer [Table 1]), respectively. The TLR2/1 agonist PAM3CSK4 (Invivogen), the TLR4 agonist lipopolysaccharide (Invivogen), the Class B CpG oligonucleotides ODN 1826 (synthesised by IDT and resuspended in RNase-free TE buffer), the mouse Sting agonist DMXAA (Cayman) and the human STING agonist (compound #3 from (Raanjulu et al., 2018), referred to as GSK herein—kind gift from Cancer Therapeutics CRC, Australia) were used at indicated concentrations. Aspirin (Sigma—A2093) was resuspended in pure medium to 10 mM, filter sterilised and added to the cells at 2 mM final. All ASOs were synthesised by Integrated DNA Technologies (IDT), and resuspended in RNase-free TE buffer, pH 8.0 (Thermo Fisher Scientific). Cell viability was assessed by adding 1× fresh resazurin solution to the wells (10λ solution made up with 7 mg resazurin [Sigma—R7017] dissolved in 3.5 ml PBS, sterile filtered at […]) for 4 h, prior to reading at with a Fluostar OPTIMA (BMG LABTECH) plate-reader (fluorescence: Excitation 535 nm, Emission 590); wells with medium only and 1× resazurin were used as blanks.
Following transfection, the cells were collected from the 6-wells and aliquoted into 96-wells, just before ASO and overnight TLR stimulation (as above described).

cGAS = cGAS (Mus musculus, UniProt Q8C6L5); assay: IFN-driven gene expression in Trex1-mutant primary BMDMs, RT-qPCR; conditions: 50 nM ASO transfected 20 h
cGAS, sequence (Q8C6L5 whole entry): as above

[1] = biological target: T2, Recombinant full-length human cGAS (Homo sapiens, UniProt Q8N884); assay: cGAS in vitro assay and cGAMP ELISA; assay type: biochemical; conditions: 2.3 μM ISD70, 40 min; for cGAMP production driven by ISD70 (in words): 0.5 μM oligonucleotide
T2 construct: Recombinant full-length human cGAS (Cayman, #22810); purchased Cayman #22810
T2 sequence (Q8N884 whole entry): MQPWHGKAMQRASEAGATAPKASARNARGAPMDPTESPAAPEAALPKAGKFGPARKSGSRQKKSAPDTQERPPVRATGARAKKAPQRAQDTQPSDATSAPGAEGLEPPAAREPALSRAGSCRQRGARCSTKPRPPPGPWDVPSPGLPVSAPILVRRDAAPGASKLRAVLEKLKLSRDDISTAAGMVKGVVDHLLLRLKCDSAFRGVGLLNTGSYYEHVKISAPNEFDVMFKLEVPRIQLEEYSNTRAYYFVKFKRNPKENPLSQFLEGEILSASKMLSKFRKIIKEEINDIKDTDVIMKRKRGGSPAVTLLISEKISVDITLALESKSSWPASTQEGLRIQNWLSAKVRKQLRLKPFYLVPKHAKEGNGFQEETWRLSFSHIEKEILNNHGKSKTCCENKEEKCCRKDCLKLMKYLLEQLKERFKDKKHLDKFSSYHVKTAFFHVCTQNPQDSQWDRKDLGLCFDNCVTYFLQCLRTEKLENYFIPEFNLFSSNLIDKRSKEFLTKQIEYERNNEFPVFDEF
Method: 0.8 μg of Recombinant full-length human cGAS (Cayman, #22810) was used per single reaction in a 200 μl volume with 80 mM Tris-HCl (pH 7.5), 200 mM NaCl, 20 μM ZnCl2, 20 mM MgCl2, 0.25 mM GTP (Thermofisher #R0441) and 0.25 mM ATP (Thermofisher #R0461), with 20 μg of ISD70 (freshly annealed at 1 μg/l in PBS), and 2 μl C2-Mut1/A151 diluted in TE buffer (to get 0.5, 2 or 10 μM ODN concentration in 200 l). After 40 min at 37° C., 2.5 mM EDTA was added to each tube to stop the enzymatic reaction and the samples were either snap frozen and stored at −80° C. or directly processed for cGAMP ELISA. cGAMP levels were measured with the DetectX Direct 2′,3′-Cyclic GAMP Enzyme Immunoassay Kit (Arbor Assays), according to the manufacturer's protocol. Briefly, 50 μL of in vitro reaction were added per well of the kit microplate with 50 μL Assay buffer, 25 μL conjugate, and 25 μL Antibody per well, prior to a minimum of 2 h incubation. The standards were prepared with serial-dilution in Assay buffer. Quantification of cGAMP levels was performed on a Fluostar OPTIMA (BMG LABTECH) plate-reader at 450 nm.

## GTGTCTGGAAGCTTCC (antisense; LNA-modified, pattern not given here) [CTNN2B-809 LNA V1]
Mouse cGAS
  effect on ISD-driven ISRE-luciferase, LNA and MOE ASOs (in words): strongly potentiating the ISRE-Luciferase signal

## mC*mG*mU*T*T*C*C*C*C*C*C*C*C*C*C*C*C*C*C*C (CGUTTCCCCCCCCCCCCCCC; antisense; sugars from the 5' end m3 d17, all phosphorothioate, methylation of C not given here) [[C2]Mut1-v3-dC]
Mouse cGAS
  inhibition of ISD45-driven ISRE-luciferase (in words): lacked significant inhibitory activity

## T*T*A* G*G*G* T*T*A* G*G*G* T*T*A* G*G*G* T*T*A* G*G*G [A151, reference compound]
cGAS
  basal expression of ISGs (Rsad2, Ifit1) in Trex1-mutant BMDMs (in words): failed to inhibit these ISGs
[1]
  cGAMP production driven by ISD70 (in words): similarly reduced cGAMP production

## GCAGGCTCAGTGATGT (antisense; LNA-modified, pattern not given here) [CTNN2B-1642 LNA V1]
Mouse cGAS
  effect on ISD-driven ISRE-luciferase, LNA and MOE ASOs (in words): increased potentiation of ISD sensing

## mG*mC*mG*mG*mU*A*T*C*C*A*T*G*T*C*C*mC*mA*mG*mG*mC (mG*mC*mG*mG*mU*dA*dT*dC*dC*dA*dT*dG*dT*dC*dC*mC*mA*mG*mG*mC; antisense) [C2-Mut1]
cGAS
  basal expression of ISGs (Rsad2, Ifit1) in Trex1-mutant BMDMs (in words): significantly decreased the basal expression of two ISGs
Mouse cGAS
  inhibition of ISD45-driven ISRE-luciferase (in words): significantly more inhibitory
[1]
  cGAMP production driven by ISD70 (in words): similarly reduced cGAMP production
[1]; 2 μM oligonucleotide
  inhibitory activity on cGAMP production relative to A151: about 2 fold

## mG*mG*mU*A*T*C*C*C*C*C*C*C*C*C*C*C*C*C*C*C (GGUATCCCCCCCCCCCCCCC; antisense; sugars from the 5' end m3 d17, all phosphorothioate, methylation of C not given here) [[C2]Mut1-dC]
Mouse cGAS
  inhibition of ISD45-driven ISRE-luciferase (in words): significantly more inhibitory than its precursor dC20
